Laboratory results published in patent publication US20180027813A1, “Use of an agent to control resistant rodents” (priority 2015, published 2018).

What was measured:
[1] = tested on: brown rat (Rattus norvegicus) strain Y139S; details: determined on the basis of LD50; cited from earlier work
[2] = tested on: brown rat VKORC1 strain L128Q; design: key: X = Strain exhibits a practical resistance to:; details: cited from earlier work
[3] = tested on: brown rat VKORC1 strain Y139F; design: key: X = Strain exhibits a practical resistance to:; details: cited from earlier work
[4] = tested on: brown rat (Rattus norvegicus) strain Y139C; details: BCR resistance test; cited from earlier work
[5] = tested on: brown rat (Rattus norvegicus) strain L120Q Hampshire; details: BCR resistance test; cited from earlier work
[6] = tested on: brown rat VKORC1 strain Y139S; design: key to Practical resistance of the strain: X = Strain exhibits a practical resistance to:; details: cited from earlier work; for Tolerance / practical resistance (in words): strain Y139S (Wales); for Practical resistance of the strain: strain Y139S
[7] = tested on: resistant rat strain "Westphalia" (VKORC1 Y139C); test: Laboratory feeding tests with single anticoagulants; assay type: in vivo; details: feed baits with one active ingredient
From the text: The resistant rat strain “Westphalia”, characterized by the VKORC1 polymorphism Y139C, is resistant to the second-generation anticoagulants bromadiolone and difenacoum, and also to the first-generation active ingredients. Feed baits containing one of these active ingredients in the authorized concentration are not effective against animals of this strain.

[8] = tested on: brown rat VKORC1 strain L120Q Berkshire; design: key: X = Strain exhibits a practical resistance to:; details: cited from earlier work
[9] = tested on: brown rat VKORC1 strain Y139C; design: key to Practical resistance of the strain: X = Strain exhibits a practical resistance to:; details: cited from earlier work; for Sensitivity of animals with VKORC1 Tyr139Cys (in words): Y139C brown rats and house mice, difenacoum in rats only; for Practical resistance of the strain / Resistance in laboratory and field experiments (in words): strain Y139C
[10] = tested on: brown rat (Rattus norvegicus) strain Y139F; details: BCR resistance test; cited from earlier work
[11] = tested on: brown rats of the resistant strain Y139C; test: Feeding experiment with brown rats of the resistant strain Y139C (Example 1); assay type: in vivo, brown rat; details: for Mortality (in words): resistant rats
Experimental: A cholecalciferol concentration of 100 mg/kg is enough to make it possible to achieve mortality rates of up to 100% (see the examples).
[…] received feed baits, as described below, over a period of 4 days. Consumption and mortality were determined afterwards. One group (6 rats, Group 1) was fed a feed bait consisting of coumatetralyl (375 mg/kg) and cholecalciferol (100 mg/kg). The other group (Group 2) was fed coumatetralyl on its own (375 mg/kg). All animals consumed the feed baits except for one animal from Group 2. Consumption was highest during the first 24 hours. On the third and fourth day, there was only little consumption. […] Two males each consumed approximately 47 mg/kg coumatetralyl and 12.5 mg/kg cholecalciferol (based on the body weight). The females consumed from 50 to 79 mg/kg coumatetralyl and from 13 to 21 mg/kg cholecalciferol (based in each case on the body weight). In Group 2, no mortality was observed, although the animals consumed 94 mg/kg coumatetralyl (mean value based on the body weight).

[12] = tested on: rats caught on the farm (strain Y139C area); test: Blood coagulation test with coumatetralyl on rats caught on the farm; assay type: in vivo, rat; details: blood coagulation test before control
From the text: The term “resistance(s)” in the context of the invention refers to “practical resistance”, characterized in that the rodenticide in question no longer achieves sufficient biological efficacy even with proper use and good acceptance of the bait by the rodents (see also Greaves—1994, Buckle A. P. and Smith R. H. eds. “Rodent Pests and their Control”, CABI, Wallingford, Oxon, UK, pages 197-217). A person skilled in the art can make a clear and unambiguous assessment in accordance with this definition as to whether a practical resistance is present or not. In general, the degree of “resistance” can be described by specifying a resistance factor. The resistance factor (RF) is usually calculated on the basis of the lethal dose (LD50) or of the effective dose (ED50). […] LD50 and ED50 are each determined experimentally for each strain. […] Until the 1980s, RFs were determined on the basis of the LD50. This method was later replaced by blood coagulation tests (BCR resistance tests), by means of which the ED50 can be determined more accurately (Prescott et al. 2007: A standardised BCR-resistance test for all anticoagulant rodenticides. Int. J. Pest Mgt. 53 (4), 265-272). Therefore, it is preferred according to the invention that RF be calculated via the quotient formed from the ED50 of the resistant strain and of a sensitive strain considered to be the reference. […]

SMILES	Resistance factor (RF) for bromadiolone [1]	Practical resistance of the strain [2]	Practical resistance of the strain [3]	Resistance factor (RF) for bromadiolone [4]	Resistance factor (RF) for bromadiolone [5]	Tolerance / practical resistance (in words) [6]	Mortality [7]	Practical resistance of the strain [8]	Sensitivity of animals with VKORC1 Tyr139Cys (in words) [9]	Practical resistance of the strain [9]	Resistance in laboratory and field experiments (in words) [9]	Resistance factor (RF) for bromadiolone [10]	Practical resistance of the strain [6]	Mortality (in words) ([11]; cholecalciferol by itself at 100 mg/kg)	Mortality (in words) ([11]; coumatetralyl by itself)	Mortality ([11]; feed baits over 4 days, 6 rats of strain Y139C per group)	Share of rats on the farm resistant for coumatetralyl [12]
O=c1oc2ccccc2c(O)c1C(CC(O)c1ccc(-c2ccc(Br)cc2)cc1)c1ccccc1 (stereo not drawn) [bromadiolone]	2.7-6.9	X	X	15-17	10-14	no practical resistance	no mortality	X	virtually completely insensitive	X	resistant	7-9	–	–	–	–	–
O=C1c2ccccc2C(=O)C1C(=O)C(c1ccccc1)c1ccc(Cl)cc1 (stereo not drawn) [chlorophacinone, (1′-p-chlorophenyl-1′-phenyl)-2-acetylindane-1,3-dione]	–	X	X	–	–	–	–	X	–	X	–	–	X	–	–	–	–
C=C1CC[C@H](O)C/C1=C/C=C1\CCC[C@]2(C)[C@@H]([C@H](C)CCCC(C)C)CC[C@@H]12 [cholecalciferol]	–	–	–	–	–	–	–	–	–	–	–	–	–	does not cause mortality	–	–	–
O=c1oc2ccccc2c(O)c1C1CCCc2ccccc21 (stereo not drawn) [coumatetralyl, 3-(1′,2′,3′,4′-tetrahydro-1′-naphthyl)-4-hydroxycoumarin]	–	X	X	–	–	–	no mortality	X	virtually completely insensitive	X	–	–	X	–	does not cause mortality	no mortality	approximately 46%
O=c1oc2ccccc2c(O)c1C1CC(c2ccc(-c3ccccc3)cc2)Cc2ccccc21 (stereo not drawn) [difenacoum, 3-(3′-paradiphenylyl-1′,2′,3′,4′-tetrahydro-1′-naphthyl)-4-hydroxycoumarin]	–	–	–	–	–	–	–	X	virtually completely insensitive	X	resistant	–	–	–	–	–	–
CC(=O)CC(c1ccccc1)c1c(O)c2ccccc2oc1=O (stereo not drawn) [warfarin, (1-phenyl-2-acetyl)-3-ethyl-4-hydroxycoumarin]	–	X	X	–	–	somewhat more tolerant	–	X	virtually completely insensitive	X	–	–	X	–	–	–	–
